The record followed here is patent publication US9718809B2, “Bisarylsulfonamides useful in the treatment of inflammation and cancer” (Kancera AB, priority 2011, dated 2017).

Structures are written as SMILES.

Data set [1] in a line: In vitro metabolic stability in human liver microsomes. Type of data set: in vitro ADME. The following applies: pH 7.4, pooled human liver microsomes 0.5 mg/ml, NADPH 1 mM, compound 3 μM. How it is done:
Pooled human liver microsomes (final protein conc 0.5 mg/ml), 0.1 M phosphate buffer (pH 7.4) and NADPH (final conc 1 mM) were pre-incubated at 37° C. Example 183 (final conc 3 μM) was added to initiate the reaction. A control incubation where 0.1 M phosphate buffer (pH 7.4) was added instead of NADPH was done as a parallel experiment. After incubation for 0, 5, 10, 30 and 45 min with NADPH (for 45 min in the control incubation), MeCN containing internal standard was added to stop the reactions. The samples were centrifuged at 2500 rpm for 20 min at 4° C. before analysis using LC-MS/MS.
(Liver microsomes are a subcellular fraction often used to study metabolism.)

In a further data set the test system is MIA PaCa-2 xenografts. The data set is described as follows: Inhibition of tumour growth, MIA PaCa-2 xenografts in NMRI nude mice. The format is in vivo, mouse. The following applies: 45 mg/kg twice a day, 3 weeks. The method, then:
FIG. 3 illustrates the effects of treatment with Example 183 on the growth of established xenografts from the human pancreatic carcinoma cell line MIA PaCa-2 in NMRI nude mice. NMRI nude mice were injected subcutaneously with MIA PaCa-2 cells. At an average tumor size of around 100 mm^3 mice were selected and randomized into treated (injected with substance) and control (vehicle treated) groups. Example 183 was administered at two doses, 25 mg/kg and 45 mg/kg, twice a day with 12 hours between administrations. From the day of inoculation the tumors were scored or measured three times a week using a digital caliper, and the body weights were determined at the same time points. The dose of injected substance was adjusted to the actual body weight of each animal. The dosing of the animals was in a period of 3 weeks.

Data set [2] is described as follows: Cell toxicity, CellTiter-Blue Cell Viability Assay. As to conditions: human, MIA PaCa-2 pancreatic carcinoma cells, MIA PaCa-2 cells, 72 h culture, read-out: IC50 based on cell toxicity. The method, then: The CellTiter-Blue® Cell Viability Assay provides a homogeneous, fluorometric method for estimating the number of viable cells present in multi-well plates. It uses the indicator dye resazurin to measure the metabolic capacity of cells. Viable cells retain the ability to reduce resazurin into resorufin, which is highly fluorescent.
Stock solutions (10 or 100 mM in DMSO) of compounds were serially diluted 1:2 in 11 concentrations. 25 nL/well (100 mM stock) or 50 nL/well (10 mM stock) were acoustically dispensed in assay plates with EDC acoustic dispenser. Final starting conc. in assay was 20 μM (0.2% DMSO) or 100 μM (0.1% DMSO) for test compounds.
Cells (MIA-PaCa-2; pancreatic carcinoma) were seeded in assay plates (384-well black/clear, Greiner #781091) pre-dispensed with compounds, 25 μL/well, and cultured for 72 h. The cell concentration was 750 cells/well. After 72 h culture, Celltiter Blue reagent was added (5 μL/well) and the plates were incubated for 2 h. The plates were read in an Envision fluorescence reader with Ex544 nm/Em590 nm. Results were calculated as % cytotoxicity compared to background (cells treated with 0.2% DMSO).
On the technique in general: Alamar Blue is a resazurin reagent that responds to reducing activity.

A further data set relates to NMRI mice. Description: In vivo tolerance in NMRI mice. The arrangement: species or system mouse. As to conditions: 25 and 45 mg/kg. The method, then:
In vivo tolerance was tested in NMRI mice using Examples 157 and 183 in 2 doses (25 and 45 mg/kg), following intraperitoneal injections daily for seven days.

Data set [3] in a line: Plasma exposure in NMRI nude mice. As to conditions: 45 mg/kg, 0.5 h after last injection (day 21). The format is in vivo, mouse. How it is done: In a related study using the same dosing schedule in NMRI nude mice, blood samples were drawn 0.5 h after last injection (day 21) to determine exposure of Example 183. Plasma, prepared by centrifugation of the blood, was frozen and kept at −20° C. Thawed plasma samples were precipitated with MeCN, centrifuged and the supernatants were analyzed by LC-MSMS. Standard samples, prepared by spiking blank plasma with Example 183, were used for quantification.

For data set [4], the system named is F-2,6-P2 in MIA PaCa-2 cells. The data set is described as follows: Quantification of F-2,6-P2 (Van Schaftingen coupled enzyme assay) in MIA PaCa-2 cells. Type of data set: cell-based. As to conditions: Homo sapiens, read-out: IC50 based on quantification of F-2,6-P2. The text has this: (§1) A method for quantification of F-2,6-P2 has been described by Van Schaftingen et al. (1982) Eur. J. Biochem. 129, 191-5. This sensitive assay is based on the potent activation of pyrophosphate dependent phosphofructokinase-1 (PPi-PFK) from potato tubers by F-2,6-P2. The use of a series of coupled enzymes leads to a consumption of NADH (nicotinamide adenine dinucleotide) that can be followed spectrophotometrically (an updated protocol is available in Van Schaftingen, (1984) Methods of Enzymatic Analysis (Bergmeyer, H. U., ed.), 3rd edn., vol. 6, pp. 335-341, Verlag Chemie, Weinheim). A protocol for measurements in 96-well microtiter plate format is also available (Bruni et al., (1989) Anal. Biochem. 178, 324-6).
(§2) The levels of F-2,6-P2 have been determined using the van Shaftingen assay as described in the protocol below, in six different cancer cell lines endogenously expressing varying levels of the different isoforms of PFK-2/BPase-2 (MCF-7, PANC-1, NUGC-3, SW480, SW620 and MIA PaCa-2). All reagents were purchased from commercial sources or prepared in-house.
Cell line F (MIA PaCa-2, human pancreatic carcinoma): MIA PaCa-2 cells (ATCC-CRL-1420), lot. no. 59270201. Cells were seeded at a concentration of ˜250 000 cells/mL in 100 μL growth medium (˜25 000 cells/well). […]

A further data set concerns F-2,6-P2 in MCF-7 cells. The data set is described as follows: Quantification of F-2,6-P2 (Van Schaftingen coupled enzyme assay) in MCF-7 cells. As to conditions: Homo sapiens, MCF7, read-out: IC50 based on quantification of F-2,6-P2. The format is cell-based.
Source text: as §1, §2
Cell line A (MCF-7, human breast adenocarcinoma cell line): MCF-7 cells (ATCC-HTB-22), lot. no. 58469417. […]

Consider `O=C(OCCO)c1ccc(NS(=O)(=O)c2cccc(-c3cc(F)ccc3O)c2)cc1O` [Example 183, 2-Hydroxyethyl 4-{[(5′-fluoro-2′-hydroxybiphenyl-3-yl)sulfonyl]amino}-2-hydroxybenzoate], for which the half-life (in general, the time needed for the level to fall by half in the phase considered) at 3 μM in data set [1] was 55 min. The microsomal CLint at 3 μM in data set [1] (read-out: intrinsic clearance) came to 25 µL/min/mg. In addition, in the data set with MIA PaCa-2 xenografts, the “tumor growth compared to a vehicle treated group” value is on record as “significant inhibition (p<0.01)”. Besides, in data set [2], the IC50 (commonly the concentration that inhibits the measured activity by half) at 72 h turned out to be 2600 nM. In addition, in the data set on NMRI mice (intraperitoneal daily for seven days, adrenal gland, brain, cerebellum, heart, intestines, kidneys, liver, lungs, mesenteric lymph node, pancreas, spleen), the “histological examinations of organs” value is “Specific lesions consistent with toxic damage were not observed”. In addition, the “macro observations during and after treatment” value with NMRI mice (intraperitoneal injections daily for seven days) was “no sign of abnormal behavior or health problem”. Also, the “exposure of unbound compound in plasma versus in vitro IC50 value (MIA PaCa-2 cells)” value in data set [3] is recorded as “exceeded the in vitro IC50 value”. Moreover, in data set [4], the 50% inhibitory concentration (IC50) was determined as 200 nM.
Take `COCCOC(=O)c1ccc(NS(=O)(=O)c2cc(-c3ccc4c(c3)CCO4)c(Cl)s2)cc1O` [Example 76, 2-Methoxyethyl 4-({[5-chloro-4-(2,3-dihydro-1-benzofuran-5-yl)-2-thienyl]sulfonyl}amino)-2-hydroxybenzoate]: the IC50 in the data set with F-2,6-P2 in MCF-7 cells is 900 nM.
